Measured values as given in ChEMBL document CHEMBL4609992, “Discovery of novel small molecule induced selective degradation of the bromodomain and extra-terminal (BET) bromodomain protein BRD4 and BRD2 with cellular potencies” (Bioorg Med Chem, 2020).
The source made the active and inactive calls. No cut-off for these calls is given here.

Key:
[1] = test system: NCI-H522; test: Growth inhibition of human NCI-H522 cells assessed as cell growth inhibition incubated for 48 hrs by sulforhodamine B assay; type: functional; settings: NCI-H522, 48 h
[2] = test system: LOX IMVI; test: Growth inhibition of human LOXIMVI cells assessed as cell growth inhibition incubated for 48 hrs by sulforhodamine B assay; type: functional
[3] = test system: BT-549; test: Growth inhibition of human BT549 cells assessed as cell growth inhibition incubated for 48 hrs by sulforhodamine B assay; type: functional; settings: BT-549, 48 h
[4] = test system: SW-620; test: Growth inhibition of human SW620 cells assessed as cell growth inhibition incubated for 48 hrs by sulforhodamine B assay; type: functional; settings: SW-620, 48 h
[5] = test system: Hs-578T; test: Growth inhibition of human Hs 578T cells assessed as cell growth inhibition incubated for 48 hrs by sulforhodamine B assay; type: functional
[6] = test system: DU-145; test: Antiproliferative activity against human DU145 cells assessed as reduction in cell viability; type: functional, cell-based
[7] = test system: VCaP; test: Antiproliferative activity against human VCaP cells assessed as reduction in cell viability; type: functional, cell-based
[8] = test system: CWR22R; test: Antiproliferative activity against human 22Rv1 cells assessed as reduction in cell viability; type: functional, cell-based
[9] = test system: HT-29; test: Growth inhibition of human HT-29 cells assessed as cell growth inhibition incubated for 48 hrs by sulforhodamine B assay; type: functional; settings: HT-29, 48 h
[10] = test system: HOP-62; test: Growth inhibition of human HOP62 cells assessed as cell growth inhibition incubated for 48 hrs by sulforhodamine B assay; type: functional; settings: HOP-62, 48 h
[11] = test system: K562; test: Growth inhibition of human K562 cells assessed as cell growth inhibition incubated for 48 hrs by sulforhodamine B assay; type: functional; settings: K562, 48 h
[12] = test system: A549; test: Antiproliferative activity against human A549 cells assessed as reduction in cell viability; type: functional, cell-based
[13] = molecular target: Protein cereblon/Bromodomain-containing protein 4/Cullin-4A (Homo sapiens) (UniProt O60885+Q96SW2+Q13619); test: Protac activity at cereblon/cullin4A/BRD4 in human MV4-11 cells assessed as induction of BRD4 degradation at 1 to 500 nM measured after 18 hrs by Western blot analysis; type: cell-based
[14] = test system: SK-OV-3; test: Growth inhibition of human SKOV3 cells assessed as cell growth inhibition incubated for 48 hrs by sulforhodamine B assay; type: functional; settings: SK-OV-3, 48 h
[15] = test system: DU-145; test: Growth inhibition of human DU145 cells assessed as cell growth inhibition incubated for 48 hrs by sulforhodamine B assay; type: functional; settings: DU-145, 48 h
[16] = test system: NCI-H1975; test: Antiproliferative activity against human NCI-H1975 cells assessed as reduction in cell viability; type: functional, cell-based
[17] = test system: MV4-11; test: Antiproliferative activity against human MV4-11 cells assessed as reduction in cell viability measured after 48 hrs by CellTiter-Glo assay; type: functional, cell-based; settings: MV4-11, 48 h
[18] = molecular target: Protein cereblon/Bromodomain-containing protein 3/Cullin-4A (Homo sapiens, UniProt Q15059+Q96SW2+Q13619); test: Protac activity at cereblon/cullin4A/BRD3 in human MV4-11 cells assessed as induction of BRD3 degradation at 50 nM measured after 18 hrs by Western blot analysis; type: cell-based; settings: mv4-11, 18 h, 0.05 µM
[19] = test system: COLO 205; test: Antiproliferative activity against human COLO205 cells assessed as reduction in cell viability; type: functional, cell-based
[20] = test system: NCI-H358; test: Antiproliferative activity against human NCI-H358 cells assessed as reduction in cell viability; type: functional, cell-based
[21] = test system: COLO 205; test: Growth inhibition of human COLO205 cells assessed as cell growth inhibition incubated for 48 hrs by sulforhodamine B assay; type: functional; settings: COLO 205, 48 h
[22] = test system: LNCaP; test: Antiproliferative activity against human LNCAP cells assessed as reduction in cell viability; type: functional, cell-based
[23] = test system: MDA-MB-231; test: Growth inhibition of human MDA-MB-231 cells assessed as cell growth inhibition incubated for 48 hrs by sulforhodamine B assay; type: functional; settings: MDA-MB-231, 48 h
[24] = test system: SF-295; test: Growth inhibition of human SF295 cells assessed as cell growth inhibition incubated for 48 hrs by sulforhodamine B assay; type: functional; settings: SF-295, 48 h
[25] = test system: M14; test: Growth inhibition of human M14 cells assessed as cell growth inhibition incubated for 48 hrs by sulforhodamine B assay; type: functional; settings: M14, 48 h
[26] = test system: SR; test: Growth inhibition of human SR cells assessed as cell growth inhibition incubated for 48 hrs by sulforhodamine B assay; type: functional
[27] = test system: PC-3; test: Growth inhibition of human PC3 cells assessed as cell growth inhibition incubated for 48 hrs by sulforhodamine B assay; type: functional; settings: PC-3, 48 h
[28] = test system: EKVX; test: Growth inhibition of human EKVX cells assessed as cell growth inhibition incubated for 48 hrs by sulforhodamine B assay; type: functional
[29] = test system: UACC-62; test: Growth inhibition of human UACC62 cells assessed as cell growth inhibition incubated for 48 hrs by sulforhodamine B assay; type: functional; settings: UACC-62, 48 h
[30] = test system: KM12; test: Growth inhibition of human KM12 cells assessed as cell growth inhibition incubated for 48 hrs by sulforhodamine B assay; type: functional; settings: KM12, 48 h
[31] = test system: A-375; test: Antiproliferative activity against human A375 cells assessed as reduction in cell viability; type: functional, cell-based
[32] = test system: TK-10; test: Growth inhibition of human TK10 cells assessed as cell growth inhibition incubated for 48 hrs by sulforhodamine B assay; type: functional; settings: TK-10, 48 h
[33] = test system: RPMI-8226; test: Growth inhibition of human RPMI8226 cells assessed as cell growth inhibition incubated for 48 hrs by sulforhodamine B assay; type: functional; settings: RPMI-8226, 48 h
[34] = test system: LNCaP-Clone-FGC; test: Antiproliferative activity against human LNCaP-FGC cells assessed as reduction in cell viability; type: functional, cell-based
[35] = test system: SK-MEL-2; test: Growth inhibition of human SK-MEL-2 cells assessed as cell growth inhibition incubated for 48 hrs by sulforhodamine B assay; type: functional; settings: SK-MEL-2, 48 h
[36] = test system: MV4-11; test: Induction of apoptosis in human MV4-11 cells measured after 24 hrs by Annexin V-FITC/propidium iodide staining based FACScan flow cytometry; type: functional, cell-based
[37] = test system: SF-268; test: Growth inhibition of human SF268 cells assessed as cell growth inhibition incubated for 48 hrs by sulforhodamine B assay; type: functional; settings: SF-268, 48 h
[38] = test system: MV4-11; test: Antiproliferative activity against human MV4-11 cells assessed as reduction in cell viability; type: functional, cell-based
[39] = test system: OVCAR-8; test: Growth inhibition of human OVCAR8 cells assessed as cell growth inhibition incubated for 48 hrs by sulforhodamine B assay; type: functional; settings: OVCAR-8, 48 h

Chain of Protein cereblon/Bromodomain-containing protein 3/Cullin-4A (Q15059 whole entry): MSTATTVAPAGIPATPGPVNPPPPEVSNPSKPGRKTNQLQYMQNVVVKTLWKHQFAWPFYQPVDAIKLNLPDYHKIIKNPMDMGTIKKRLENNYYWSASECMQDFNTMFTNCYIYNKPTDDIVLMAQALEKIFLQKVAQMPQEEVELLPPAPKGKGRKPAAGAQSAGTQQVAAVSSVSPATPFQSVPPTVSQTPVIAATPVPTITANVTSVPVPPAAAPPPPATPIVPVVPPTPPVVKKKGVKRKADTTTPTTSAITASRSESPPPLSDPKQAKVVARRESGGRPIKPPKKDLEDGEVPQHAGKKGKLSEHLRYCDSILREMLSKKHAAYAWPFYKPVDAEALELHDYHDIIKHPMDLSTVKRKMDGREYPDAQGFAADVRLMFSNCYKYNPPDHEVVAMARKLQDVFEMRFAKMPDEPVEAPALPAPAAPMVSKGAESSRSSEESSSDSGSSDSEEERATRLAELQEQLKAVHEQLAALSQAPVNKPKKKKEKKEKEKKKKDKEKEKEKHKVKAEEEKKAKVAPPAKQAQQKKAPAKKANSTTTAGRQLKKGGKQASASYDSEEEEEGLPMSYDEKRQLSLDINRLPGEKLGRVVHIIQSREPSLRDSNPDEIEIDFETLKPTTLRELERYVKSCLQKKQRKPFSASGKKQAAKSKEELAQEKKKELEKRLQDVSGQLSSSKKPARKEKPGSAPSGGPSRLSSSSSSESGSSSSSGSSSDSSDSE
Chain of Protein cereblon/Bromodomain-containing protein 3/Cullin-4A (Q96SW2 whole entry): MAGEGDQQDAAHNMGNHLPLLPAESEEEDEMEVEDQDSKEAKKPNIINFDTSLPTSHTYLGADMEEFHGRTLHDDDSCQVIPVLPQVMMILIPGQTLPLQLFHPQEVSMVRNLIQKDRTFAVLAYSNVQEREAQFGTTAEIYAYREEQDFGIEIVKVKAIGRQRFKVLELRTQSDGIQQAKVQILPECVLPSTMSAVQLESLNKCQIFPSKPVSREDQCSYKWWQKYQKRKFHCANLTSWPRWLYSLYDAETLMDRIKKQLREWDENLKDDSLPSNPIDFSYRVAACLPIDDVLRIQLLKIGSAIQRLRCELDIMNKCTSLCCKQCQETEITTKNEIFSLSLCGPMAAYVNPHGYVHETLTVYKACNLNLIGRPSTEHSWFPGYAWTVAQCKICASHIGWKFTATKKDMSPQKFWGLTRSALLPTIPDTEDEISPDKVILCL
Chain of Protein cereblon/Bromodomain-containing protein 3/Cullin-4A (Q13619 whole entry): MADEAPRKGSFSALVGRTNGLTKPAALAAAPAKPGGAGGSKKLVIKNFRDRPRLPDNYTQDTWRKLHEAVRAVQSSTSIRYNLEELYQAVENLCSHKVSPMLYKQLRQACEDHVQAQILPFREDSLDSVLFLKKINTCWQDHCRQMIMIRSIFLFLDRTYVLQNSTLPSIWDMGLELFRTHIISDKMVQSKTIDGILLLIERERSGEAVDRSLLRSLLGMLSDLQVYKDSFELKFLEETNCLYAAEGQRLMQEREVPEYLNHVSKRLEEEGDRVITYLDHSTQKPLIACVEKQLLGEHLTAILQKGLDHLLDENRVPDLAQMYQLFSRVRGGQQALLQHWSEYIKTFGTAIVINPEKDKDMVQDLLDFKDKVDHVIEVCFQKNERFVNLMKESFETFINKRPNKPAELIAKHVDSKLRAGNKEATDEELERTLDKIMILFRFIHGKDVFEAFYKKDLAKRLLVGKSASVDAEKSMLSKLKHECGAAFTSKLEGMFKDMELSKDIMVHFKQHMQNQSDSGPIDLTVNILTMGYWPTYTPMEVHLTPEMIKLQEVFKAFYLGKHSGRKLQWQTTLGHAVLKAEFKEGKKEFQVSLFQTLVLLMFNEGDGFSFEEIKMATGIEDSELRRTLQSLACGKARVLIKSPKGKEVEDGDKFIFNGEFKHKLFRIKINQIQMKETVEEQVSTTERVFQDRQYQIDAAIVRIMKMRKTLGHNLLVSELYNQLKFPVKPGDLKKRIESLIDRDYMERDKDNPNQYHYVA

COc1ccccc1S(=O)(=O)Nc1ccc2c3c(cc(CCC(=O)NCCCCNc4cccc5c4C(=O)N(C4CCC(=O)NC4=O)C5=O)cc13)C(=O)N2C (centres undefined)
GI50 [1]: 2740 nM
GI50 [2]: 3970 nM
GI50 [3]: 78 nM
GI50 [4]: 249 nM
GI50 [5]: 186 nM
IC50 [6]: 3660 nM
IC50 [7]: 250 nM
IC50 [8]: 81 nM
GI50 [9]: 3770 nM
GI50 [10]: 416 nM
GI50 [11]: 422 nM
IC50 [12]: 13700 nM
Activity [13]: Active
GI50 [14]: 1630 nM
GI50 [15]: 5910 nM
IC50 [16]: 459 nM
IC50 [17]: 12.2 nM
Activity [18]: Not Active
IC50 [19]: 156 nM
IC50 [20]: 1380 nM
GI50 [21]: 495 nM
IC50 [22]: 620 nM
GI50 [23]: 32 nM
GI50 [24]: 3220 nM
GI50 [25]: 937 nM
GI50 [26]: 122 nM
GI50 [27]: 248 nM
GI50 [28]: 7480 nM
GI50 [29]: 5450 nM
GI50 [30]: 675 nM
IC50 [31]: 2440 nM
GI50 [32]: 895 nM
GI50 [33]: 683 nM
IC50 [34]: 910 nM
GI50 [35]: 1120 nM
Activity [36]: Dose-dependent effect
GI50 [37]: 366 nM
IC50 [38]: 9.79 nM
GI50 [39]: 360 nM
